Test results taken from US12558348B2, “Bioactive phytochemicals” (Phytoquest Limited, priority 2019, dated 2026).
Marks after values point to notes of the source that are not given here.

Tests used:
[1] = test system: sialidase in human THP-1 (monocyte-like) cell cultures; assay: Endogenous (lysosomal) sialidase activity in LPS-stimulated THP-1 cells; format: cell-based; settings: for RFU / Sialidase activity/mg protein: 2 hrs then 16 hours LPS; for Relative sialidase activity/mg protein: 16 hours LPS, relative to LPS control = 1.00
Experimental: The THP-1 cells were cultured in RPMI media supplemented with mercaptoethanol & glutamine to get 80% confluence in culture flask, then aspirated and centrifuged at 1500 rpm for 5 mins. The cell pellet was then resuspended in 1 ml of RPMI complete media and counted conventionally using a Hemocytometer. The cells (5×106) were incubated with PMA (10 ng/ml) in separate dishes to differentiate THP-1 cells. […] […] Post incubation, the cells were used to determine the sialidase activity.
The THP-1 cells were washed with phosphate-buffered saline (PBS) and resuspended in ice-cold buffer containing 0.25 M sucrose, 1 mM EDTA, and 0.2 mM phenylmethylsulfonyl fluoride. The cell suspension was sonicated on ice for 15 s on a low setting (6% amplitude) (Vibracell™; Sonics and Materials Inc., Newtown, CT) followed by centrifugation at 25,000 g for 15 min at 4° C. The resulting supernatant was used to determine the lysosomal sialidase activity. Protein quantification of the supernatant was performed using the Bio-Rad protein determination kit as described above. For the determination of lysosomal sialidase activity, 200 μg of total protein was mixed with 40 nmol of 4-methylumbelliferyl-α-N-acetyl-D-neuraminic acid (Sigma), the lysosomal sialidase-specific substrate, 10 μmol sodium acetate buffer, pH 4.6, and 200 μg of bovine serum albumin in a total volume of 200 μl. The sialidase reaction was allowed to proceed for 1 h at 37° C. and was terminated by the addition of 0.25 M glycine NaOH, pH 10.4. Released 4-methylumbelliferone was measured fluorometrically (Synergy 2 multimode microplate reader) at an excitation wavelength of 365 nm and emission wavelength of 448 nm.

THP-1 cells = assay: Viability of THP-1 cells (trypan blue uptake or MTT dye conversion); format: cell-based, human
IL-10 = IL-10 ELISA in LPS stimulated THP-1 cells; format: cell-based, human; settings: for Fold increase in IL-10 levels: vs control = 1.00
Experimental: (§1) The cells in an 80% confluence culture flask were aspirated and centrifuged at 1500 rpm for 5 mins. The cell pellet was then resuspended in 1 ml of RPMI complete media and 1×10^5 cells/well seeded to each well of the 96 well microtiter plate. After 24 hrs incubation, PMA (10 ng/ml) was added to the 96 well plate to differentiate THP-1 cells to determine the TNF-α production, THP-1 cells were pretreated for 1 hr with idoBR1 or cucumber extract-Q-actin (batch no. […] Post incubation, the cell supernatant from each of the wells was aspirated into sterile micro centrifuge tubes and centrifuged at 1000 rpm for 2-3 mins. The cell supernatant was then used for evaluation of presence of cytokines using ELISA.
(§2) ELISA plates coated with antibodies for IL-12, IL-1β, or IL-10 (R&D Systems, USA) were used for the following study. To each well 50 μL of Assay Diluent RD1F was added after mixing well. 200 μL of sample (idoBR1 or extract), or control per well was added and covered with an adhesive strip. Following incubation for 2 hours at room temperature each well was aspirated and washed 4 times with Wash Buffer (400 μl). After the last wash, any remaining Wash Buffer was removed by aspirating or decanting. The plates were inverted and blotted against clean paper towels. To each well 200 μl of appropriate human conjugate was added and these then covered with a new adhesive strip and incubated for 1 hour at room temperature. The aspiration/wash was then repeated. 200 μL of Substrate Solution was then added to each well and further incubated for 20 minutes at room temperature protected from light. 50 μL of Stop Solution was added to each well. The colour in the wells was changed from blue to yellow. OD was measured within 30 minutes at 450 nm.

IL-12 = IL-12 ELISA in LPS stimulated THP-1 cells; format: cell-based, human; settings: for % reduction in IL-12 levels: vs LPS control
Experimental: as §1, §2

phosphorylated ERK 42/44 = assay: Western blot of phosphorylated ERK p42/44 in LPS-stimulated THP-1 cells; format: cell-based, human; settings: vs LPS = 1.00
Experimental: THP-1 cells were cultured in RPMI media supplemented with mercaptoethanol & glutamine to get 80% confluence in culture flasks, then they were aspirated and centrifuged at 1500 rpm for 5 mins. The cell pellet was then resuspended in 1 ml of RPMI complete media and counted conventionally using a hemocytometer. The cells (5×106) were incubated with PMA (10 ng/ml) in separate dishes to differentiate THP-1 cells. To determine the protein expression p38 & p42/44, THP-1 cells were pre-treated for 1 hr with idoBR1-100 μg/ml & 50 μg/ml and cucumber extract (Q-actin batch no. B17CF001)—200 μg/ml & 100 μg/ml, followed by 2 hr LPS (1 μg/ml) stimulation. Post incubation, the cells were harvested and whole protein was isolated.
Cell pellets were lysed, and the protein concentration was determined using the Bio-Rad protein determination assay (Bio-Rad). Total cell proteins were subjected to 8% polyacrylamide SDS gel electrophoresis followed by transfer onto polyvinylidene difluoride membranes (Thermoscientific). The membranes were probed with either mouse anti-phospho-p38 mAb (Thermoscientific) or mouse anti-phospho-p42/44 mAb (Thermoscientific), followed by horseradish peroxidase-conjugated goat anti-mouse polyclonal antibodies (Thermoscientific). All immunoblots were visualized by ECL (Amersham Biosciences).

[2] = test system: murine microglial cell line BV-2; assay: Nitrite production by LPS-stimulated BV-2 microglial cells; format: cell-based; settings: 24 hours
Experimental: idoBR1 was used in cell cultures of murine microglial cell line BV-2 at 0, 20, 40 and 80 μg/ml plus and minus sub-optimal LPS. Production of TNF-α and nitrite was measured after 24 hours.

O=C(O)[C@@H]1NC[C@H](O)[C@@H](O)[C@@H]1O [idoBR1, (2R,3R,4R,5S)-3,4,5-trihydroxypiperidine-2-carboxylic acid]
Sialidase activity/mg of protein ([1]; 12.5 μg/mL + LPS, 4 hours): 91.30
Sialidase activity/mg of protein ([1]; 12.5 μg/mL + LPS, 8 hours): 129.95
Sialidase activity/mg of protein ([1]; 12.5 μg/mL + LPS, 16 hours): 186.34
Sialidase activity/mg of protein ([1]; 12.5 μg/mL + LPS, 24 hours): 108.47
RFU ([1]; 12.5 μg/ml): 1610 RFU
Sialidase activity/mg protein ([1]; 12.5 μg/ml): 186.34
Relative sialidase activity/mg protein ([1]; 12.5 μg/ml): 0.89
Sialidase activity/mg of protein ([1]; 25 μg/mL + LPS, 4 hours): 86.48
Sialidase activity/mg of protein ([1]; 25 μg/mL + LPS, 8 hours): 121.84
Sialidase activity/mg of protein ([1]; 25 μg/mL + LPS, 16 hours): 178.24
Sialidase activity/mg of protein ([1]; 25 μg/mL + LPS, 24 hours): 103.85
RFU ([1]; 25 μg/ml): 1540 RFU
Sialidase activity/mg protein ([1]; 25 μg/ml): 178.24
Relative sialidase activity/mg protein ([1]; 25 μg/ml): 0.86
Sialidase activity/mg of protein ([1]; 50 μg/mL + LPS, 4 hours): 79.35
Sialidase activity/mg of protein ([1]; 50 μg/mL + LPS, 8 hours): 109.77
Sialidase activity/mg of protein ([1]; 50 μg/mL + LPS, 16 hours): 130.21
Sialidase activity/mg of protein ([1]; 50 μg/mL + LPS, 24 hours): 88.83
RFU ([1]; 50 μg/ml): 1125 RFU
Sialidase activity/mg protein ([1]; 50 μg/ml): 130.21
Relative sialidase activity/mg protein ([1]; 50 μg/ml): 0.63
Sialidase activity/mg of protein ([1]; 100 μg/mL + LPS, 4 hours): 72.15
Sialidase activity/mg of protein ([1]; 100 μg/mL + LPS, 8 hours): 99.32
Sialidase activity/mg of protein ([1]; 100 μg/mL + LPS, 16 hours): 115.16
Sialidase activity/mg of protein ([1]; 100 μg/mL + LPS, 24 hours): 78.66
RFU ([1]; 100 μg/ml): 995 RFU
Sialidase activity/mg protein ([1]; 100 μg/ml): 115.16
Relative sialidase activity/mg protein ([1]; 100 μg/ml): 0.55
viability of THP-1 cells (THP-1 cells): did not significantly alter
IL-10 (IL-10; 12.5 μg/mL): 19.02 pg/mL
Fold increase in IL-10 levels (IL-10; 12.5 μg/mL): 1.34 fold
IL-10 (IL-10; 25 μg/mL): 29.34 pg/mL
Fold increase in IL-10 levels (IL-10; 25 μg/mL): 2.07 fold
IL-10 (IL-10; 50 μg/mL): 37.22 pg/mL
Fold increase in IL-10 levels (IL-10; 50 μg/mL): 2.63 fold
IL-10 (IL-10; 100 μg/mL): 43.08 pg/mL
Fold increase in IL-10 levels (IL-10; 100 μg/mL): 3.04 fold
IL-12 (IL-12; 12.5 μg/mL): 104.23 pg/mL
% reduction in IL-12 levels (IL-12; 12.5 μg/mL): 11.22%
IL-12 (IL-12; 25 μg/mL): 97.37 pg/mL
% reduction in IL-12 levels (IL-12; 25 μg/mL): 17.07%
IL-12 (IL-12; 50 μg/mL): 92.89 pg/mL
% reduction in IL-12 levels (IL-12; 50 μg/mL): 20.88%
IL-12 (IL-12; 100 μg/mL): 88.60 pg/mL
% reduction in IL-12 levels (IL-12; 100 μg/mL): 24.53%
Relative expression of p42/44 (phosphorylated ERK 42/44; 50 μg/ml): 0.80
Relative expression of p42/44 (phosphorylated ERK 42/44; 100 μg/ml): 0.76
Nitrite production ([2]; 20 μg/ml + LPS): 11* μM
Nitrite production ([2]; 40 μg/ml + LPS): 9** μM
Nitrite production ([2]; 80 μg/ml + LPS): 8** μM
